Legend:
[1] = Cytotoxicity against African green monkey Vero E6 cells; format: toxicity, cell-based, Vero C1008; details: chlorocebus sabaeus
[2] = test system: Middle East respiratory syndrome-related coronavirus; assay: Antiviral activity against MERS-CoV infected in HLE cells assessed as inhibition of viral replication; format: functional, organism-based
[3] = test system: Middle East respiratory syndrome-related coronavirus; assay: Antiviral activity against MERS-CoV infected in HAE cells; format: functional, organism-based
SARS-CoV-2 = assay: Antiviral activity against SARS-CoV-2 infected in HAE cells assessed as reduction in viral infection; format: functional, organism-based; details: Severe acute respiratory syndrome coronavirus 2, HAE
Human coronavirus OC43 = assay: Antiviral activity against HCoV-OC43; format: functional, organism-based; details: Betacoronavirus 1
[4] = Cytotoxicity against human Huh-7 cells by celltiter-glo Assay; format: toxicity, cell-based
Murine hepatitis virus = assay: Antiviral activity against MHV infected in mouse Astrocytoma delayed brain tumor (DBT) cells; format: functional, organism-based; details: Murine coronavirus, Astrocytoma delayed brain tumor (DBT) cell
[5] = Cytotoxicity against mouse Astrocytoma delayed brain tumor (DBT) cells; format: toxicity, cell-based, Astrocytoma delayed brain tumor (DBT) cell
[6] = Antiviral activity against Porcine delta coronavirus assessed as reduction in viral replication; format: functional, Porcine deltacoronavirus
Ebolavirus [7] = assay: Antiviral activity against EBOV infected in human endothelial cells assessed as reduction in viral replication; format: functional, organism-based; details: Orthoebolavirus
Ebolavirus [8] = assay: Antiviral activity against EBOV infected in human Huh-7 cells assessed as reduction in viral replication; format: functional, organism-based; details: Orthoebolavirus
Ebolavirus [9] = assay: Antiviral activity against EBOV infected in human primary macrophage cells assessed as reduction in viral replication; format: functional, organism-based; details: Orthoebolavirus
Ebolavirus [10] = assay: Antiviral activity against EBOV infected in HFF assessed as reduction in viral replication; format: functional, organism-based; details: Orthoebolavirus
Ebolavirus [11] = assay: Antiviral activity against EBOV infected in human HeLa cells assessed as reduction in viral replication; format: functional, organism-based; details: Orthoebolavirus
Ebolavirus [12] = assay: Antiviral activity against EBOV infected in rhesus monkey model assessed as protection against viral infection at 10 mg/kg, iv administered once daily fir 12 days relative to control; format: functional; details: time 12 day
Nipah virus [13] = assay: Antiviral activity against NiV by virus titre reduction assay; format: functional, organism-based; details: Henipavirus nipahense
Nipah virus [14] = assay: Antiviral activity against NiV by antigen reduction assay; format: functional, organism-based; details: Henipavirus nipahense
Nipah virus [15] = assay: Antiviral activity against NiV by reporter assay; format: functional, organism-based; details: Henipavirus nipahense
Nipah virus [16] = assay: Antiviral activity against NiV by cytopathic effect assay; format: functional, organism-based; details: Henipavirus nipahense
[17] = test system: Respiratory syncytial virus; assay: Antiviral activity against RSV; format: functional, organism-based; details: human respiratory syncytial virus
Junin virus = assay: Antiviral activity against Argentinian mammarenavirus assessed as inhibition of viral replication; format: functional, organism-based; details: Mammarenavirus juninense
Lassa virus = assay: Antiviral activity against Lassa virus assessed as inhibition of viral replication; format: functional, organism-based; details: Mammarenavirus lassaense
[18] = Prodrug conversion in rhesus monkey plasma assessed as NTP formation at 10 mg/kg; format: ADME, organism-based, Macaca mulatta; details: in vivo
[19] = Prodrug conversion in mouse lungs assessed as NTP formation at 10 mg/kg; format: ADME, organism-based, Lung; details: in vivo

## CCC(CC)COC(=O)[C@H](C)N[P@](=O)(OC[C@H]1O[C@@](C#N)(c2ccc3c(N)ncnn23)[C@H](O)[C@@H]1O)Oc1ccccc1
[1]
  CC50: > 100000 nM
[2]
  IC50: 25 nM
[3]
  EC50: 74 nM
SARS-CoV-2
  EC50: 69 nM
Human coronavirus OC43
  EC50: 150 nM
[4]
  CC50: > 10000 nM
Murine hepatitis virus
  EC50: 30 nM
[5]
  CC50: 39000 nM
[6]
  EC50: 20 nM
Ebolavirus [7]
  EC50: 60 nM
Ebolavirus [8]
  EC50: 60 nM
Ebolavirus [9]
  EC50: 60 nM
Ebolavirus [10]
  EC50: 60 nM
Ebolavirus [11]
  EC50: 60 nM
Ebolavirus [12]
  Activity: 100%
Nipah virus [13]
  EC50: 29 nM
Nipah virus [14]
  EC50: 29 nM
Nipah virus [15]
  EC50: 29 nM
Nipah virus [16]
  EC50: 29 nM
[17]
  EC50: 19 nM
  EC90: 51 nM
Junin virus
  EC50: 470 nM
  EC90: 1330 nM
Lassa virus
  EC50: 1480 nM
  EC90: 2800 nM
[18]
  Drug metabolism: 30 µmol/L
[19]
  Drug metabolism: 2 µmol/L

— ChEMBL document CHEMBL5230088 (Eur J Med Chem, 2020)
